Results as given in patent US12290526B2 (priority 2018, dated 2025).

Key:
[1] = test system: gout induced by intra-articular uric acid at 20% in rats; test: PIFIR model (pain-induced functional impairment, uric acid 20%), analgesic activity after topical administration; format: in vivo, Female Wistar rats; settings: for ability to walk and visible adverse effects: doses used (3.2-31.6 mg/Kg topical), observation period of 5 h
Source text: Female Wistar rats [Crl:(WI)BR] were employed with a weight of between 180 and 200 g. All the experimental procedures followed the recommendations of the committee for Research and Ethical Issues of the International Association for the Study of Pain and the Guidelines on Ethical Standards for Investigations of Experiment Pain in Animals. The number of animals for experimentation was kept to a minimum: 6 rats per experimental point. The animals were kept in a room with alternating dark/light cycles.
Twelve hours before the experiments, the fur that covers the rats' major muscle group that covers the femur (4 cm×4 cm) on the outer side of the hind right paw was very carefully clipped with some scissors, leaving the fur cut to a maximum length of 2 mm and taking care not to injure the rats' skin. Food was also removed at this moment, leaving them only free access to water. All the experiments were performed during the light phase, with the animals only being used once.
The analgesic effects are assessed employing the PIFIR model, in other words, the rats were anesthetized in a glass desiccator, saturated with ether vapor. The gout was induced by applying an intra-articular injection (i.a.) of 0.05 ml of uric acid suspended in mineral oil in the right hind member, exactly in the femur-tibia-kneecap joint. A 1 mL glass syringe with a 4-mm-long No. 22 needle is used for the intra-articular injection. Immediately afterwards, an electrode is attached to each hind paw in the middle of the plantar calluses. The rats were left to recover from the anesthesia and placed in a 30-cm-diameter rotary stainless-steel cylinder. The cylinder was turned at 4 r.p.m., forcing the rats to walk for 3 min every half hour, for a total of 5 hours. The variable measured was the contact time of each one of the rats' hind paws in the cylinder. When the electrode makes contact with the cylinder a circuit is closed and the ratio between the contact time of the injured paw in respect of the uninjured one was recorded on a computer.
The temporary courses of each treatment for 5 continuous hours were determined, employing an “n” of 6 rats per treatment. For the purpose of this study, inducing harm in the experimental animals was unavoidable. However, care was taken to avoid causing unnecessary suffering to the animals. At the end of the experimental determinations, the rats were immediately sacrificed.
From the aforementioned experimental model, the results obtained from the analgesic assessment of the combination are expressed as a Functionality Index percentage (FI %). This FI % is the ratio obtained by dividing the contact time of the limb with uric acid by the contact time of the limb against of the same rats, and multiplying the result by 100. The temporary course (TC) curves are built by plotting FI % or Dysfunction against time (h). The analgesic or antinociceptive effect was estimated as the recuperation of FI %. […] All the values plotted in the figures correspond to the mean±error standard for 6 animals.

[2] = cited from earlier work
[3] = cited from earlier work; remark: listed apart in the source
[4] = 31.6 mg/Kg topical administration

Compound: O=C(O)COC(=O)Cc1ccccc1Nc1c(Cl)cccc1Cl [aceclofenac, (2-{2-[(2,6-Dichlorophenyl)amino]phenyl}acetoxy) acetic acid]
- maximum effect (Emax), recovery of Functionality Index percentage (FI %) ([1]; 31.6 mg/Kg topical administration, rats, uric acid 20%, 5 h observation, mean ± standard error, n=6): 42.0±6.9%
- analgesic effects in temporary courses (in words) ([1]; 3.16, 5.62, 10.0, 17.78 and 31.62 mg/Kg topical administration): does show analgesic effects
- ability to walk and visible adverse effects [1]: did not affect the ability of the rats to walk during the observation period or cause any visible adverse effect
- time over which the concentration in the top skin layers slowly declines ([2]; after the drug product is removed from the skin): more than 16 hours
- amount of aceclofenac absorbed, of the total dose applied ([2]; applied to the skin): 13%
- amount retained on the top layers of skin, of the dose applied ([2]; applied to the skin): 6 to 9%

Compound: C[C@H]1C[C@H]2[C@@H]3CCC4=CC(=O)C=C[C@]4(C)[C@@]3(F)[C@@H](O)C[C@]2(C)[C@@]1(O)C(=O)CO [betamethasone, (11ß,16ß)-9-fluoro-11,17,21-trihydroxy-16-methylpregna-1,4-diene-3,20-dione]
- analgesic effects in temporary course (in words) [1, 4]: modest analgesic effects
- time point of the maximum effect [1, 4]: 3.5 h
- analgesic effects in temporary courses (in words) ([1]; 3.16, 10.0 and 17.8 mg/Kg topical administration): does not generate analgesic effects
- ability to walk and visible adverse effects [1]: did not affect the ability of the rats to walk during the observation period or cause any visible adverse effect
- solubility in water [3]: insoluble in water
